Source: patent publication US8263631B2, “Anti-cancer pharmaceutical compositions and methods for treating patients with cancer” (Daiichi Sankyo Company, Limited, priority 2006, dated 2012)
Marks after values point to notes of the source that are not given here.

How the values were obtained:
[1] = system: human non-small-cell lung cancer line A549; test: In vitro cell proliferation inhibitory activity, combination with VEGFR and Raf kinase inhibitor; type: cell-based; conditions: Compound X 10 μM alone, A549, 6 days
Experimental: Human non-small-cell lung cancer line A549 cells were inoculated on a 96-well plate at 5×10^2 cells/well, and at the same time, agents of various concentrations dissolved in DMSO were added so that the concentration of DMSO became 0.1%. […] After addition of the drugs, the cells were cultivated in the presence of 5% carbon dioxide at 37° C. for 6 days. Then, Cell Titer 96 Aqueous One Solution Reagent (Promega Corp.) was added at 40 μl/well each, and then absorbance A490 of each well was measured using MICROPLATE READER (Bio-Rad Laboratories, Inc.).

[2] = system: human non-small-cell lung cancer line A549; test: In vitro cell proliferation inhibitory activity, combination with EGFR inhibitor; conditions: Compound X 10 μM alone, A549, 7 days
Experimental: Human non-small-cell lung cancer line A549 cells (purchased from American Tissue Culture Collection) were cultured using 10% fetal bovine serum (Hyclone Laboratories, Inc.)-RPMI (Invitrogen Corporation). A549 cells were inoculated on a 96-well plate at 5×10^2 cells/well, and at the same time, the agents of various concentrations dissolved in DMSO were added so that the concentration of DMSO became 0.1%. […] After the addition of the drugs, cells were cultivated in the presence of 5% carbon dioxide at 37° C. for 7 days. Then, Cell Titer 96 Aqueous One Solution Reagent (Promega Corp.) was added at 40 μl/well each, followed by 2 hours of cultivation. Absorbance A490 of each well was measured using MICROPLATE READER (Bio-Rad Laboratories, Inc.).

[3] = system: human leukemia cell line HL-60; test: Cell proliferation inhibitory activity against human leukemia cell (Cell Titer 96); type: cell-based; conditions: 5 days
[4] = system: human kidney cancer line SN12-PM6; test: In vivo anti-tumor activity against human kidney cancer (SN12-PM6 tumor-bearing nude mouse); conditions: 0.1 mL per 10 g orally, once a day, 5 times per week, day 10 to 56
Description: In the experiment, human kidney cancer line SN12-PM6 (provided by Professor Seiji Naito of Kyushu University), in which it was confirmed that no mouse pathogenic microorganism was detected by quarantine, was transplanted to a subcutaneous axillary portion of a nude mouse BALB/cA Jcl-nu (CLEA Japan, Inc.), to subculture a tumor. The tumor was cut into small pieces in a size of 5 mm, and transplanted to a right subcutaneous axillary portion of a BALE/cA Jcl-nu mouse by using a troker (CLEA Japan, Inc.). […] Subsequently, distilled water (Otsuka Pharmaceutical Factory, Inc.) was added so that the final concentrations of ethanol and cremophor became each 12.5%. […] Twice a week, the major axis and the minor axis of the transplanted tumor were measured using digital micrometer calipers (MAX-CAL MAX-15: Nihon Sokutei Kougu Kabusikikaisha), and tumor proliferation inhibitory activity was obtained from the following calculation formula and expressed as the tumor volume inhibition rate. […]
Evaluation of anti-tumor activity for each of the drug administration group was determined by the tumor volume inhibition rate. In addition, a statistical difference test was determined by conducting Students' t test with respect to the tumor volumes of the drug non-administration control group and the drug administration group 59 days after transplantation.

[5] = system: human non-small-cell lung cancer line A549; test: In vivo anti-tumor activity against non-small-cell lung cancer (A549 tumor-bearing nude mouse); conditions: Compound X alone, 1 mg/mL, 0.1 mL per 10 g orally, once a day, 5 times per week, day 14 to 60
Description: In the experiment, human non-small-cell lung cancer line A549 (purchased from American Type Culture Collection), in which it was confirmed that no mouse pathogenic microorganism was detected by quarantine, was transplanted to a subcutaneous axillary portion of a nude mouse BALB/cA Jcl-nu (CLEA Japan, Inc.), to subculture a tumor. The tumor was cut into small pieces of 5 mm size, and transplanted to a right subcutaneous axillary portion of a BALB/cA Jcl-nu mouse by using a troker (CLEA Japan, Inc.). […] Twice a week, the major axis and the minor axis of the transplanted tumor were measured using digital micrometer calipers (MAX-CAL MAX-15: Nihon Sokutei Kougu Kabusiki Kaisha), and tumor proliferation inhibitory activity was obtained from the following calculation formula and expressed as the tumor volume inhibition rate. […]
Evaluation of anti-tumor activity for each of the drug administration groups was determined by the tumor volume inhibition rate. In addition, a statistical difference test was determined by conducting Students' t test with respect to tumor volume of the drug non-administration control group and the drug administration group 63 days after transplantation.

[6] = system: human colon cancer line WiDr; test: In vivo anti-tumor activity against human colon cancer cells (WiDr tumor-bearing nude mouse); conditions: once a day, 5 times per week
Description: In the experiment, human colon cancer line WiDr (purchased from American Type Culture Collection), in which it was confirmed that no mouse pathogenic microorganism was detected by quarantine, was transplanted to a subcutaneous axillary portion of a nude mouse BALB/cA Jcl-nu (CLEA Japan, Inc.), to subculture a tumor. The tumor was cut into small pieces of 5 mm size, and was transplanted to a right subcutaneous axillary portion of a BALB/cA Jcl-nu mouse by using a troker (CLEA Japan, Inc.). The required amounts of Compounds X and Y were each weighed and were dissolved in N,N-dimethylacetamide (DMA: Wako Pure Chemical Industries, Ltd.), and 5% Emulphor 620 (GAF Corporation)-saline (Otsuka Pharmaceutical Co., Ltd.) was then added to the mixtures in small amounts, so that the concentrations of the compounds were each adjusted to 0.2, 1 or 5 mg/mL. Here, DMA was made to have a final concentration of 2.5%. […] Twice a week, the major axis and the minor axis of the transplanted tumor were measured using digital micrometer calipers (MAX-CAL MAX-15: Nihon Sokutei Kougu Kabusiki Kaisha), and tumor proliferation inhibitory activity was obtained from the following calculation formula and expressed as the tumor volume inhibition rate. Average tumor volume in each test group (mm^3)=½×(minor axis)^2 (mm^2)×(major axis) (mm) Tumor volume inhibition rate (%)={1−(average tumor volume of drug administration group/average tumor volume of drug non-administration group)}×100
Evaluation of anti-tumor activity of each of the drug administration groups was determined by the tumor volume inhibition rate. In addition, a statistical difference test was determined by conducting Students' t test with respect to the tumor the volume of drug non-administration control group and the drug administration group 38 days after transplantation.

[7] = system: MKN74, MKN28, ZR-75-1, SBC-1, AsPC-1, DU-145, ACHN, D341 Med, A-204, RD-ES, SW872, U266 cancer cell lines; test: Evaluation of cancer cell proliferation inhibitory activity (sulforhodamine B staining, absorbance A490); type: cell-based, human; conditions: 0.1, 1 or 10 μM (AsPC-1: 0.05, 0.5 or 5 μM), 7 days (U266: 4 days); all cancer cell lines, FIGS. 1-3
Description: Human gastric cancer cell line (MKN74, MKN28) purchased from Immuno-Biological Laboratories Co., Ltd., human breast cancer cell line (ZR-75-1), small-cell lung cancer line (SBC-1), pancreatic cancer cell line (AsPC-1), prostate cancer cell line (DU-145), kidney cancer cell line (ACHN), medulloblastoma line (D341 Med), human sarcoma cell line (rhabdomyosarcoma line A-204, Ewing's sarcoma line RD-ES, liposarcoma line SW872) and multiple myeloma line (U266) that were purchased from […] were used in the test. […]
To the control group was added only DMSO so that its concentration became 0.1%. […] 10 mM Tris was added at […] to each well in which cancer cells were immobilized and stained, and absorbance A490 of each well was measured using MICROPLATE READER Model 3550 (Bio-Rad Laboratories, Inc.). […]
In each of the graphs, the longitudinal axis represents the absorbance [%], and the horizontal axis represents the concentration of Compound X [μM].

[8] = system: human leukemia cell line THP-1; test: Cell proliferation inhibitory activity against human leukemia cell (Cell Titer 96); type: cell-based; conditions: 5 days
[9] = 2 mg/kg orally, determined on Day 35, Exp. 2
[10] = 10 mg/kg orally, determined on Day 35, Exp. 2
[11] = 50 mg/kg orally, determined on Day 35, Exp. 1
[12] = 50 mg/kg orally, determined on Day 35, Exp. 2

SMILES | Proliferation inhibition rate [1] [%] | Cell proliferation inhibition rate [2] [%] | HL-60 Proliferation inhibition rate ([3]; Compound X 10 μM) [%] | HL-60 Proliferation inhibition rate ([3]; Compound X 25 μM) | HL-60 Proliferation inhibition rate ([3]; Compound X 50 μM) | Tumor volume inhibition rate ([4]; Compound X alone, 0.3 mg/mL) [%] | Tumor volume inhibition rate [5] [%] | Tumor volume inhibition rate [6, 9] | Tumor volume inhibition rate [6, 10] | Tumor volume inhibition rate [6, 11] | Tumor volume inhibition rate [6, 12] | cancer cell proliferation inhibitory activity (absorbance % of DMSO control) [7] | THP-1 Proliferation inhibition rate ([8]; Compound X 10 μM) [%] | THP-1 Proliferation inhibition rate ([8]; Compound X 25 μM) [%] | THP-1 Proliferation inhibition rate ([8]; Compound X 50 μM) | Tumor volume inhibition rate ([4]; sorafenib alone, 10 mg/mL) [%]
Cc1cc(Oc2ccc3nc(COc4ccc(CC5SC(=O)NC5=O)cc4)n(C)c3c2)cc(C)c1N.Cl.Cl (centres unmarked) [Compound X, 5-(4-(6-(4-Amino-3,5-dimethyl-phenoxy)-1-methyl-1H-benzimidazol-2-ylmethoxy)-benzyl)-thiazolidine-2,4-dione.dihydrochloride] | 15 | 12 | 23 | 27* % | 45** % | 37 | 33 | 31* % | 35* % | 49* % | 38* % | significant proliferation inhibitory activity | 7 | 20 | 48** % | –
CNC(=O)c1cc(Oc2ccc(NC(=O)Nc3ccc(Cl)c(C(F)(F)F)c3)cc2)ccn1 [Sorafenib, sorafenib, reference compound] | – | – | – | – | – | – | – | – | – | – | – | – | – | – | – | 43
CC(C)Nc1cccc(Oc2ccc3nc(COc4ccc(CC5SC(=O)NC5=O)cc4)n(C)c3c2)c1.Cl.Cl (centres unmarked) [Compound Y, 5-(4-(6-(3-Isopropylamino-phenoxy)-1-methyl-1H-benzimidazol-2-ylmethoxy)-benzyl)-thiazolidine-2,4-dione.dihydrochloride] | – | – | – | – | – | – | – | 26* % | 32* % | 35* % | 40* % | – | – | – | – | –
